This is an account of results in patent US8507656B2, “Stabilized angiopoietin-2 antibodies and uses thereof” (MedImmune Limited, priority 2008, dated 2013).

Entries after “also recorded” stand apart in the source; their conditions may differ. Marks after values point to notes of the source that are not given here.

One series has as its system HT-29 xenograft tumors. Put plainly: HT-29 xenograft model of colorectal cancer. In kind it is in vivo. The settings on record: 3.19.3 10 mg/kg 2×wk i.p., Irinotecan 35 mg/kg/week i.v., combination of both. As for the experimental part: (§1) The anti-tumor activity of 3.19.3 was evaluated in combination with Irinotecan in the HT-29 xenograft model of colorectal cancer. HT-29 cells were cultured in flasks as routine until the cells reached sub-confluence. Cell suspensions containing approximately 3×10E6 cells were injected subcutaneously into the flank of female Swiss nude mice. When the tumor volume reached 200 mm^3, the mice were randomized in treatment groups of 8-10 mice and the treatments were initiated. 3.19.3 (10 mg/kg) in saline was injected intraperitoneally, twice per week for 2 weeks. Irinotecan (35 mg/kg) was administered by intravenous administration following a weekly schedule. The dimensions of each tumor and body weights were measured at least twice per week. The volume of the tumor was calculated as: Volume=Length×(Width)×0.5 (cm^3). […] The % tumor growth inhibition achieved is as follows: […]

For another series, the system named is H460 xenograft tumors. In kind it is in vivo. The settings on record: 3.19.3 10 mg/kg 2×wk i.p., AZD4877 10 mg/kg q4dx2 i.p., combination of both. As for the experimental part:
The anti-tumor activity of 3.19.3 was evaluated in combination with AZD4877 in the
H460 xenograft model of lung cancer. H460 cells were cultured in flasks as routine until the cells reached sub-confluence. Cell suspensions containing approximately 3×10E6 cells were injected subcutaneously into the right flank of male NCr nu/nu mice. When the tumor volume reached 200 mm^3, the mice were randomized in treatment groups of 8-10 mice and the treatments were initiated. 3.19.3 (10 mg/kg) in saline was injected intraperitoneally, twice per week for 2 weeks. AZD4877 (10 mg/kg) was administered by intraperitoneal administration following a q4d schedule. The dimensions of each tumor and body weights were measured at least twice per week. The volume of the tumor was calculated as: Volume=Length×(Width)×0.5 (cm^3).

In a further series the test system is Colo205 xenograft tumors. The series is described as follows: Colo205 xenograft model of colorectal cancer. In kind it is in vivo. The note with it: 3.19.3 10 mg/kg 2×wk i.p., Gemcitabine 50 mg/kg q3dx2 i.v., combination of both. As for the experimental part: as §1, with “Gemcitabine” for “Irinotecan”, “Colo205” for “HT-29”, “Gemcitabine (50” for “Irinotecan (35”, “q3d” for “weekly”

Series [1] concerns collagen induced arthritis.
Series [2] concerns MDA-MB-231 xenograft tumors. Put plainly: MDA-MB-231 orthotopic breast cancer xenograft model. In kind it is in vivo. The note with it: 3.19.3 10 mg/kg 2×wk i.p., AZD6495 30 mg/kg bid p.o. 18 d, combination of both. As for the experimental part:
The anti-tumor activity of the anti-Angiopoietin-2 monoclonal antibody 3.19.3 in combination with the small molecule CSF1R tyrosine kinase inhibitor AZD6495 was evaluated in a xenograft model of human breast carcinoma using the MDA-MB-231 cell line (FIG. 5a).
Breast adenocarcinoma MDA-MB-231 cells were cultured in flasks as routine until the cells reach sub-confluence. Immunodeficient 7-10 week old female nude mice were orthotopically implanted with 8×10^6 MDA-MB-231 cells suspended 1:1 in Matrigel into the mammary fat pad. The mice were then randomized into cohorts containing 10 mice once the tumors reached approximately 100 mm^3. The mice were treated by intraperitoneally (IP) injection with mAb 3.19.3 (10 mg/kg) twice per week for 3 weeks thereafter, or by oral administration of AZD6495 (30 mg/kg) following bid dosing for 18 days. […] The body weights of each animal, and the dimensions of each tumor were measured twice per week. The volume of the tumor was calculated as: Volume=Length×(Width)^2×0.5 cm^3, or by bilateral Vernier caliper measurement and, taking length to be the longest diameter across the tumor and width the corresponding perpendicular, calculated using the formula (π/6)×(length×width)×√(length×width). Growth inhibition from the start of treatment was assessed by comparison of the differences in tumor volume between control and treated groups.

The subject of the next series is MCF7 xenograft tumors. The series is described as follows: MCF7 breast cancer xenograft model. The settings on record: 3.19.3 10 mg/kg 2×wk i.p., AZD6495 30 mg/kg bid p.o. 18 d, combination of both. In kind it is in vivo. The method, then:
The anti-tumor activity of the anti-Angiopoietin-2 monoclonal antibody 3.19.3 in combination with the small molecule CSF1R tyrosine kinase inhibitor AZD6495 (4-[(2,4-difluorophenyl)amino]-7-ethoxy-6-(4-methylpiperazin-1-yl)quinoline-3-carboxamide) was evaluated in a xenograft model of human breast carcinoma using the MCF7 cell line (FIG. 4a).
Materials and Methods: Breast carcinoma MCF7 cells were cultured in flasks as routine until the cells reach sub-confluence. Immunodeficient 7-10 week old male NCr-nude mice were subcutaneously implanted with 8×10^6 MCF7 cells suspended 1:1 in Matrigel in the right flank. […]
The mice were then randomized into cohorts containing 15 mice once the tumors reached approximately 100 mm^3. […] The body weights of each animal, and the dimensions of each tumor were measured twice per week. The volume of the tumor was calculated as: Volume=Length×(Width)^2×0.5 cm^3, or by bilateral Vernier caliper measurement and, taking length to be the longest diameter across the tumor and width the corresponding perpendicular, calculated using the formula (π/6)×(length×width)×√(length×width). Growth inhibition from the start of treatment was assessed by comparison of the differences in tumor volume between control and treated groups.

Series [3] relates to collagen-induced arthritis. The series is described as follows: Collagen-induced arthritis (CIA), dose response (Example 11). In kind it is in vivo, male DBA/1 mice.
The mark [4] stands for this setting: means ± SEM, 3.19.3 10 mg/kg i.p every 3 days, hIgG i.p, Prednisolone 3 mg/kg p.o daily, 14 days from disease onset.
The mark [5] stands for this setting: 0.1 mg/kg ip every 3 days for 14 days from disease onset.
Where [6] appears, read: 1 mg/kg ip every 3 days for 14 days from disease onset.
Where [7] appears, read: 10 mg/kg ip every 3 days for 14 days from disease onset.

As to “3.19.3: fully human anti-Ang-2 monoclonal antibody, wild type control; light chain SEQ ID No. 1, heavy chain SEQ ID No. 2 [Antibody 3.19.3]”, the “% tumor growth inhibition” value in the series with HT-29 xenograft tumors was 44%; in the series with H460 xenograft tumors it was 64%; in the series on Colo205 xenograft tumors it was 74%; in series [2], 17%; in the series with MCF7 xenograft tumors it was 62%. The “clinical signs of disease progression (arthritic score) and histological assessment of synovitis and joint destruction (in words)” value in series [1] (3.19.3 10 mg/kg, vs vehicle control) is “Significant reductions”. In addition, in series [1] (setting [4]), the “% Inhibition (of AUC of clinical disease progression)” value is listed as 64.3% ± 8.6%. The “Area Under Curve (AUC) of clinical disease progression” value in series [1] (setting [4]) was found to be 36.0 ± 8.7. Moreover, the “tolerability by mean body weight (in words)” value in series [1] (mouse, in vivo, 10 mg/kg) is “well tolerated”. In addition, the “% inhibition (AUC of Clinical Score)” value is given as 16% +/− 13% in series [3] (setting [5]), 53% +/− 7%* in series [3] (setting [6]) and 44% +/− 9%* in series [3] (setting [7]). For the same substance, the “AUC of Clinical Score” value in series [3] (setting [5]) is 99 +/− 15; in series [3] (setting [6]) it was 46 +/− 9; in series [3] (setting [7]), 67 +/− 11. Besides, the “CD31+ microvessel density in synovium (in words)” value is reported as “no effect” in series [3] (3.19.3 0.1 mg/kg); “significant reduction in microvessel density; also recorded: significant reduction in the presence of microvessels” in series [3] (3.19.3 at 1 and 10 mg/kg, prednisolone 3 mg/kg). Moreover, the “histopathological evaluation: synovial hyperplasia, synovitis, pannus, synovial fibrosis, periostitis (in words)” value in series [3] (3.19.3 0.1, 1 and 10 mg/kg, isotype control vs PBS vehicle) is “dose-dependent anti-arthritic effect”. Moreover, the “clinical signs of disease progression (arthritic score) (in words)” value in series [3] (doses of 1 and 10 mg/kg) is “significant reduction”.
